Structures are written as SMILES. Read-outs that look alike come from different tables or passages of the source.

Experimental findings from patent US11999727B2 (Tango Therapeutics, Inc., priority 2020, dated 2024) are described below.

The target of assay [1] is T1, PRMT5 (Homo sapiens, UniProt O14744).
T1 construct: purchased Viva (custom protein)
As to the kind of experiment: PRMT5 biochemical IC50 assay with MTA as cofactor. The settings on record: PRMT5, MTA as cofactor; read-out: MTA IC50.

The target in assay [2] is T1, PRMT5. The assay can be described thus: PRMT5 biochemical IC50 assay with SAM as cofactor. The following applies: PRMT5, SAM as cofactor; read-out: SAM IC50.
Assay [3] addresses T1, PRMT5. As to the kind of experiment: PRMT5 biochemical IC50 assay with no cofactor. The following applies: PRMT5, no cofactor. The source says:
Table 1 indicates IC50 values (μM) against PRMT5 for exemplary compounds in the presence of SAM as cofactor, with no cofactor, and with MTA as cofactor, respectively (columns 4-6). […] Ki values can be calculated from the IC50 values as described in the Examples section. As detailed in the Examples section, for the assay performed in the presence of SAM, IC50=Ki×1.5 (Ki=IC50/1.5).

Assay [4] relates to HAP1 MTAP-deleted cell line. The assay can be described thus: Viability assay, MTAP-deleted cell line. The format is cell-based. The settings on record: Homo sapiens, read-out: HAP1 MTAP deleted viability. The text has this:
Table 1 additionally indicates IC50 values in a viability assay for the MTAP-deleted cell line (column 10), indicating the effect of treatment with compound on cell survival.

[5] abbreviates: HAP1, viability assay, MTAP-deleted cell line.
[6] abbreviates: read-out: No Cofactor/ rel IC50.
The mark [7] stands for this setting: HAP1, viability IC50, MTAP-deleted cell line.

T1 sequence (O14744 whole entry): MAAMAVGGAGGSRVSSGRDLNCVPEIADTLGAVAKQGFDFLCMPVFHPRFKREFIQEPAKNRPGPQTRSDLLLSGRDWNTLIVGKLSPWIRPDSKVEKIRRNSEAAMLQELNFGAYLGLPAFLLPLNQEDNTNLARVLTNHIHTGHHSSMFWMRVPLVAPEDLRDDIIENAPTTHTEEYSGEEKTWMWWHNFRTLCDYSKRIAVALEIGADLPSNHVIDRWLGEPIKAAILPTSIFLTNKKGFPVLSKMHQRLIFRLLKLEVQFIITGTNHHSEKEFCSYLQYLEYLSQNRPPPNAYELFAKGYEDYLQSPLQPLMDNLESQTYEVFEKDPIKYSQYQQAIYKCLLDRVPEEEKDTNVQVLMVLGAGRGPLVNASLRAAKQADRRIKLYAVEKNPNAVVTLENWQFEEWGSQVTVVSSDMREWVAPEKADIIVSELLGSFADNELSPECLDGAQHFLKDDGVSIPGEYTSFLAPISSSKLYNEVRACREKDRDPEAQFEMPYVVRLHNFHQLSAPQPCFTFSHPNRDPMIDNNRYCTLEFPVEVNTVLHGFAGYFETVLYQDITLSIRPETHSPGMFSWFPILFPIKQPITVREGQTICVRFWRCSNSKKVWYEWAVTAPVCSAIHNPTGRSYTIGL
T1 sequence (Q9BQA1 whole entry partner): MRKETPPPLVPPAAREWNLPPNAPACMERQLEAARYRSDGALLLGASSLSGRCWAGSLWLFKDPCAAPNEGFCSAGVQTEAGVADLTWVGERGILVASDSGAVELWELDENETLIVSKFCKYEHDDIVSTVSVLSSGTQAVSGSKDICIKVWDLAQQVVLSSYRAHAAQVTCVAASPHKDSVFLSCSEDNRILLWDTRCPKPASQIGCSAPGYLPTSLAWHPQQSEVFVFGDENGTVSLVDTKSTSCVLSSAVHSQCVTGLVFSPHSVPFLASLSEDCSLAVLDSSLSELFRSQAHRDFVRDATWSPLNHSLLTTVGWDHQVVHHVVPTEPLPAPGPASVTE

In the case of `C[C@H]1CC[C@H](c2ccc(N[C@H](C)C(=O)N(C)C)cc2)N(C(=O)C(=O)Nc2cncc(C(N)=O)c2)C1` (racemic) [Compound 414, 5-[[2-[(2R,5S)-2-[4-[[(1R)-2-(Dimethylamino)-1-methyl-2-oxo-ethyl]amino]phenyl]-5-methyl-1-piperidyl]-2-oxo-acetyl]amino]pyridine-3-carboxamide], the IC50 was 50 to 500 nM on PRMT5 [1], 50 to 500 nM on PRMT5 [2], 50 to 500 nM on PRMT5 [3] (read-out: No Cofactor/rel IC50) and greater than 10000 nM in assay [4] (setting [5]).
Regarding `C[C@H]1CC[C@H](c2ccc3sc(N)nc3c2)N(C(=O)C(=O)Nc2cncc(C(N)=O)c2)C1` (single isomer, unassigned) [Compound 987], the IC50 on PRMT5 [1] was less than 50 nM; at PRMT5 [2] it was 50 to 500 nM; at PRMT5 [3] (read-out: No Cofactor/rel IC50), 50 to 500 nM; in assay [4] (setting [5]) it was 1000 to 10000 nM.
As to `C[C@@H]1CC[C@H](c2ccc(O)nc2)N(C(=O)C(=O)Nc2cncc(C(N)=O)c2)C1` (single isomer, unassigned) [Compound 401], the IC50 on PRMT5 [1] was less than 50 nM; at PRMT5 [2] it was 50 to 500 nM; at PRMT5 [3] (read-out: No Cofactor/rel IC50), 50 to 500 nM; in assay [4] (setting [5]), greater than 10000 nM.
Regarding `C[C@@H]1CC[C@@H](c2cccc(Cl)c2)N(C(=O)C(=O)Nc2cnc(N)c(C3CC3)c2)C1` (single isomer, unassigned) [Compound 1169], the IC50 at PRMT5 [1] was 50 to 500 nM; at PRMT5 [2], greater than 500 nM; at PRMT5 [3] (read-out: No Cofactor/rel IC50), greater than 500 nM; in assay [4] (setting [5]) it was greater than 10000 nM.
For the molecule `NC(=O)CC1CCC2CN(C(=O)C(=O)Nc3cncc(C(N)=O)c3)CCC2C1` (stereo not drawn) [Compound 420, 5-{2-[6-(Carbamoylmethyl)-decahydroisoquinolin-2-yl]-2-oxoacetamido}pyridine-3-carboxamide], the IC50 on PRMT5 [1] was 50 to 500 nM; at PRMT5 [2], greater than 500 nM; at PRMT5 [3] (read-out: No Cofactor/rel IC50), greater than 500 nM; in assay [4] (setting [5]) it was greater than 10000 nM.
In the case of `CCc1cc(NC(=O)C(=O)N2C[C@H](C)CC[C@H]2c2ccc3sc(C(F)(F)F)nc3c2)cnc1N` (single isomer, unassigned) [Compound 1027], the IC50 on PRMT5 [1] is greater than 500 nM; on PRMT5 [2], greater than 500 nM; at PRMT5 [3] (read-out: No Cofactor/rel IC50), greater than 500 nM; in assay [4] (setting [5]), greater than 10000 nM.
With `C[C@@H]1CC[C@@H](c2ccccc2)N(C(=O)C(=O)Nc2cncc(C(N)=O)c2)[C@@H]1C` (single isomer, unassigned) [Compound 435], the IC50 at PRMT5 [1] is greater than 500 nM; on PRMT5 [2], greater than 500 nM; at PRMT5 [3] (read-out: No Cofactor/rel IC50) it was greater than 500 nM; in assay [4] (setting [5]), greater than 10000 nM.
`C[C@@H]1CC[C@@H](c2cccc(Cl)c2)N(C(=O)C(=O)Nc2cncc(C(N)=O)c2)C1` (single isomer, unassigned) [Compound 441]: the IC50 at PRMT5 [1] is greater than 500 nM; at PRMT5 [2], greater than 500 nM; on PRMT5 [3] (read-out: No Cofactor/rel IC50), greater than 500 nM; in assay [4] (setting [5]), greater than 10000 nM.
As to `NC(=O)c1cncc(NC(=O)C(=O)N2CC[C@H]3C[C@@H](O)CC[C@@H]3C2)c1` (racemic) [Compound 418, 5-[2-(6-Hydroxy-decahydroisoquinolin-2-yl)-2-oxoacetamido]pyridine-3-carboxamide], the IC50 is 50 to 500 nM at PRMT5 [1], greater than 500 nM on PRMT5 [2], greater than 500 nM on PRMT5 [3] (read-out: No Cofactor/rel IC50) and greater than 10000 nM in assay [4] (setting [5]).
Regarding `NC(=O)c1cncc(NC(=O)C(=O)N2CCCCC2C2CCCC2O)c1` (stereo not drawn) [Compound 169, 5-{2-[2-(2-Hydroxycyclopentyl)piperidin-1-yl]-2-oxoacetamido}pyridine-3-carboxamide], the IC50 was 50 to 500 nM at PRMT5 [1], 50 to 500 nM at PRMT5 [2], greater than 500 nM on PRMT5 [3] (setting [6]) and greater than 10000 nM in assay [4] (setting [5]).
Regarding `COc1ncc(NC(=O)C(=O)N2C[C@@H](C)CC[C@@H]2C2CCCC2)cc1C(N)=O` (single isomer, unassigned) [Compound 298], the IC50 was greater than 500 nM on PRMT5 [1], greater than 500 nM at PRMT5 [2], greater than 500 nM at PRMT5 [3] (read-out: No Cofactor/rel IC50) and greater than 10000 nM in assay [4] (setting [5]).
Turning to `CC(=O)Nc1ccc([C@H]2CC[C@H](C)CN2C(=O)C(=O)Nc2cncc(C(N)=O)c2)cn1` (single isomer, unassigned) [Compound 905], the IC50 on PRMT5 [1] was greater than 500 nM; at PRMT5 [2], greater than 500 nM; at PRMT5 [3] (read-out: No Cofactor/rel IC50) it was greater than 500 nM; in assay [4] (setting [5]), greater than 10000 nM.
As to `Cc1cc(NC(=O)C(=O)N2C[C@@H](C)CC[C@@H]2c2ccc(S(C)(=O)=O)cc2)cnc1N` (single isomer, unassigned) [Compound 976], the IC50 on PRMT5 [1] is less than 50 nM; on PRMT5 [2] it was 50 to 500 nM; on PRMT5 [3] (read-out: No Cofactor/rel IC50), 50 to 500 nM; in assay [4] (setting [5]), 1000 to 10000 nM.
`Cc1cc(NC(=O)C(=O)N2C[C@H](C)CC[C@H]2c2ccc3c(cnn3C)c2)cnc1N` (racemic) [Compound 922]: the IC50 at PRMT5 [1] is less than 50 nM; on PRMT5 [2] it was 50 to 500 nM; on PRMT5 [3] (read-out: No Cofactor/rel IC50), 50 to 500 nM; in assay [4] (setting [5]) it was less than 1000 nM.
`Cc1cc(NC(=O)C(=O)N2C[C@@H](C)C(F)(F)C[C@@H]2c2cccc3[nH]ncc23)cnc1N` (single isomer, unassigned) [Compound 1034]: the IC50 on PRMT5 [1] is greater than 500 nM; on PRMT5 [2], greater than 500 nM; at PRMT5 [3] (read-out: No Cofactor/rel IC50), greater than 500 nM; in assay [4] (setting [5]), greater than 10000 nM.
`COc1ncc(NC(=O)C(=O)N2C[C@H](C)CC[C@@H]2C2CCCCC2)cc1C(N)=O` (single isomer, unassigned) [Compound 389]: the IC50 on PRMT5 [1] was 50 to 500 nM; on PRMT5 [2] it was greater than 500 nM; on PRMT5 [3] (read-out: No Cofactor/rel IC50), greater than 500 nM; in assay [4] (setting [5]) it was greater than 10000 nM.
On to `COc1ncc(NC(=O)C(=O)N2C[C@@H](C)CC[C@@H]2c2ccc(F)cc2)cc1C(N)=O` (single isomer, unassigned) [Compound 445], for which the IC50 on PRMT5 [1] is greater than 500 nM; on PRMT5 [2] it was greater than 500 nM; on PRMT5 [3] (read-out: No Cofactor/rel IC50), greater than 500 nM; in assay [4] (setting [5]) it was greater than 10000 nM.
On to `C[C@H]1CC[C@H](c2ccc(NCC(=O)N(C)C)cc2)N(C(=O)C(=O)Nc2cncc(C(N)=O)c2)C1` (single isomer, unassigned) [Compound 1082], for which the IC50 at PRMT5 [1] is greater than 500 nM; on PRMT5 [2] it was greater than 500 nM; on PRMT5 [3] (read-out: No Cofactor/rel IC50) it was greater than 500 nM; in assay [4] (setting [5]), greater than 10000 nM.
Regarding `COc1ncc(NC(=O)C(=O)N2C[C@H](C)CC[C@H]2c2ccc3sc(C(F)(F)F)nc3c2)cc1C(N)=O` (single isomer, unassigned) [Compound 1030], the IC50 at PRMT5 [1] is greater than 500 nM; on PRMT5 [2], greater than 500 nM; on PRMT5 [3] (read-out: No Cofactor/rel IC50) it was greater than 500 nM; in assay [4] (setting [5]) it was greater than 10000 nM.
Turning to `COc1ncc(NC(=O)C(=O)N2C[C@H](C)CC[C@H]2c2ccc3sc(CCN(C)C)nc3c2)cc1C(N)=O` (single isomer, unassigned) [Compound 1197], the IC50 was greater than 500 nM on PRMT5 [1], greater than 500 nM at PRMT5 [2], greater than 500 nM at PRMT5 [3] (read-out: No Cofactor/rel IC50) and 1000 to 10000 nM in assay [4] (setting [5]).
In the case of `CCc1cc(NC(=O)C(=O)N2C[C@H](C)CC[C@H]2c2ccc3c(c2)C(=O)NC3)cnc1N` (single isomer, unassigned) [Compound 695], the IC50 is greater than 500 nM on PRMT5 [1], greater than 500 nM at PRMT5 [2], greater than 500 nM at PRMT5 [3] (read-out: No Cofactor/rel IC50) and greater than 10000 nM in assay [4] (setting [7]).
As for `CCc1cc(NC(=O)C(=O)N2C[C@H](C)CC[C@H]2c2ccc3c(c2)CNC3=O)cnc1N` (single isomer, unassigned) [Compound 699, N-(6-amino-5-ethylpyridin-3-yl)-2-(5-methyl-2-(1-oxoisoindolin-5-yl)piperidin-1-yl)-2-oxoacetamide], the IC50 on PRMT5 [1] is greater than 500 nM; on PRMT5 [2], greater than 500 nM; at PRMT5 [3] (read-out: No Cofactor/rel IC50), greater than 500 nM; in assay [4] (setting [7]) it was greater than 10000 nM.
In the case of `NC(=O)c1cncc(NC(=O)C(=O)N2CC[C@@]3(O)CCCC[C@H]3C2)c1` (racemic) [Compound 421, 5-[2-(4a-Hydroxy-decahydroisoquinolin-2-yl)-2-oxoacetamido]pyridine-3-carboxamide], the IC50 on PRMT5 [1] is 50 to 500 nM; on PRMT5 [2] it was greater than 500 nM; on PRMT5 [3] (read-out: No Cofactor/rel IC50) it was greater than 500 nM; in assay [4] (setting [5]) it was greater than 10000 nM.
Turning to `CNc1ccc([C@@H]2CC[C@@H](C)CN2C(=O)C(=O)Nc2cncc(C(N)=O)c2)cc1` (single isomer, unassigned) [Compound 424], the IC50 is greater than 500 nM on PRMT5 [1], greater than 500 nM on PRMT5 [2], greater than 500 nM at PRMT5 [3] (read-out: No Cofactor/rel IC50) and greater than 10000 nM in assay [4] (setting [5]).
As for `CNc1cccc([C@H]2CC[C@H](C)CN2C(=O)C(=O)Nc2cnc(N)c(C)c2)c1` (single isomer, unassigned) [Compound 450], the IC50 on PRMT5 [1] is greater than 500 nM; on PRMT5 [2], greater than 500 nM; at PRMT5 [3] (read-out: No Cofactor/rel IC50), greater than 500 nM; in assay [4] (setting [5]), greater than 10000 nM.
As to `Cc1cc(NC(=O)C(=O)N2C[C@@H]3CC[C@@H](C3)[C@@H]2c2ccccc2)cnc1N` (single isomer, unassigned) [Compound 62], the IC50 at PRMT5 [1] was 50 to 500 nM; at PRMT5 [2], greater than 500 nM; at PRMT5 [3] (setting [6]), greater than 500 nM; in assay [4] (setting [5]) it was greater than 10000 nM.
On to `Cc1cc(NC(=O)C(=O)N2C[C@@H](C)CC[C@@H]2c2ccc3[nH]nc(N)c3c2)cnc1C` (single isomer, unassigned) [Compound 958], for which the IC50 on PRMT5 [1] is greater than 500 nM; at PRMT5 [2], greater than 500 nM; on PRMT5 [3] (read-out: No Cofactor/rel IC50) it was greater than 500 nM; in assay [4] (setting [5]), greater than 10000 nM.
